# Like-named read-outs stand apart in the source and are kept apart here.
# Columns and labels:
# [1] = biological target: T1, human AR (Homo sapiens, UniProt P10275); assay: co-transfection assay, hAR in CV-1 cells (MTV-LUC reporter); assay type: cell-based; details: for AR Agonist CV-1 Cells Efficacy: agonist mode, luciferase production relative to DHT; for AR Agonist CV-1 Cells Efficacy / AR Antagonist CV-1 Cells Efficacy: hAR in CV-1 cells; for AR Antagonist CV-1 Cells Efficacy: antagonist mode, maximal inhibition of DHT-induced luciferase production
# T1 construct: expressed in transfected cells; host or cells: CV-1 cells (African green monkey kidney fibroblasts)
# T1 sequence (P10275 1-920): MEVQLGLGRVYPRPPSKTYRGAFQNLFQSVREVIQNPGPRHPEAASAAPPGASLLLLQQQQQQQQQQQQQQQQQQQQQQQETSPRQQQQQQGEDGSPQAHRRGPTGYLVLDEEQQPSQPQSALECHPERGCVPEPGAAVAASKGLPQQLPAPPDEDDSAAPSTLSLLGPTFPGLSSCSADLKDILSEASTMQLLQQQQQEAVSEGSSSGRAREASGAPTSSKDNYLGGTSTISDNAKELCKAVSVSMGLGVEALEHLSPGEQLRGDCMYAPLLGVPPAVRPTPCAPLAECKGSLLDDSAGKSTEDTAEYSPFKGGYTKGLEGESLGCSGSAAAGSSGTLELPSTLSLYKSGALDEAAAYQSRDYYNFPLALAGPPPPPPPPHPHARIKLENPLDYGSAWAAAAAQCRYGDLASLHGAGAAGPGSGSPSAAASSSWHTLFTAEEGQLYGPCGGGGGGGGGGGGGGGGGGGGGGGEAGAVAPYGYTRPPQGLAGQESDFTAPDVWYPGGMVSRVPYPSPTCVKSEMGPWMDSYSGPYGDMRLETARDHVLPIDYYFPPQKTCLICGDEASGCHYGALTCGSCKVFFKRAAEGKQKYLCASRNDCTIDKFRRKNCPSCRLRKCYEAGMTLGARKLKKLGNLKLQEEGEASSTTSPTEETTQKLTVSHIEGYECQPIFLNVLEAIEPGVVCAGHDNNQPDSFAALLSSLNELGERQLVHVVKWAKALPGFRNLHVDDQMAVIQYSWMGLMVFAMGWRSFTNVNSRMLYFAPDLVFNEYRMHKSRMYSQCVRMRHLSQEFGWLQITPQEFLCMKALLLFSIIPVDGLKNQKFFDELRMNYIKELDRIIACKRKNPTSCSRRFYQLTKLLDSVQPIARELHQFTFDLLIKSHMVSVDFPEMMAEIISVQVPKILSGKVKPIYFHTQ
# Source text: The co-transfection assay provides a method for identifying functional agonists and partial agonists that mimic, or antagonists that inhibit, the effect of native hormones and quantifying their activity for responsive IR proteins. In this regard, the co-transfection assay mimics an in vivo system in the laboratory. Importantly, activity in the co-transfection assay correlates very well with known in vivo activity, such that the co-transfection assay functions as a qualitative and quantitative predictor of a tested compounds in vivo pharmacology. , See e.g., T. Berger et al. 41 J. Steroid Biochem. Molec.
# (§1) CV-1 cells (African green monkey kidney fibroblasts) were cultured in the presence of Dulbecco's Modified Eagle Medium (DMEM) supplemented with 10% charcoal resin-stripped fetal bovine serum (CH-FBS) then transferred to 96-well microtiter plates one day prior to transfection.
# The reporter plasmid, MTV-LUC, contains the cDNA for firefly luciferase (LUC) under control of the mouse mammary tumor virus (MTV) long terminal repeat, a conditional promoter containing an androgen response element. See e.g., Berger et al. supra. In addition, pRS-β-Gal, coding for constitutive expression of E. coli β-galactosidase (β-Gal), was included as an internal control for evaluation of transfection efficiency and compound toxicity.
# (§2) Three to four replicates were used for each sample.
# (§3) After 40 hours, the cells were washed with PBS, lysed with a Triton X-100-based buffer and assayed for LUC and β-Gal activities using a luminometer or spectrophotometer, respectively. For each replicate, the normalized response (NR) was calculated as: LUC response/β-Gal rate • where β-Gal rate=β-Gal/β-Gal incubation time.
# [2] = biological target: T2, ER (Homo sapiens, UniProt P03372); assay: co-transfection assay, ER; assay type: cell-based
# T2 construct: expressed in transfected cells; host or cells: background cell substantially devoid of endogenous IRs (CV-1 described for the co-transfection assay)
# T2 sequence (P03372 1-595): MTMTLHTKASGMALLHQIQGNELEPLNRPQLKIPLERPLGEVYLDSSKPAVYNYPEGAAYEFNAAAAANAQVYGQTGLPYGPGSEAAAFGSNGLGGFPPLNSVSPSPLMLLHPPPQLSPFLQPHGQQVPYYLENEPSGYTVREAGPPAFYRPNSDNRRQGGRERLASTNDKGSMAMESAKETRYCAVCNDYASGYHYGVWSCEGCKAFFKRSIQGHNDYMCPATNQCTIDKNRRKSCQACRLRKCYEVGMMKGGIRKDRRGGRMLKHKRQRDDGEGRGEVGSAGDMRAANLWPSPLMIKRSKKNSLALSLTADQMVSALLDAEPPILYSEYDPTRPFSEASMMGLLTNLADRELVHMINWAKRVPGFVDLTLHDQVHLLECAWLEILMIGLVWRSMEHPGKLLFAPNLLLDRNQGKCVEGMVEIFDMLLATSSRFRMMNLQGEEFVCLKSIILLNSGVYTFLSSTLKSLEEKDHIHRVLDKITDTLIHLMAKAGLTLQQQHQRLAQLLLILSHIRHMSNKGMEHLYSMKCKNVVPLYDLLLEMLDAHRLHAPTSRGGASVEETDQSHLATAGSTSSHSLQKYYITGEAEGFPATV
# Procedure: as §1, §2, §3
SMILES,EC50 [1] [nM],AR Agonist CV-1 Cells Efficacy [1],AR Antagonist CV-1 Cells Efficacy [1],"EC50 ([2]; agonist mode, read-out: ER Potency Agon) [nM]","IC50 ([2]; antagonist mode, read-out: ER Potency Antag) [nM]",EC50 [2] [nM],IC50 [2] [nM]
"CCCC1COc2c(ccc3[nH]c(=O)cc(C(F)(F)F)c23)N1 (racemic) [Compound 116, (±)-2,3,4,7-Tetrahydro-3-propyl-10-(trifluoromethyl)-8H-[1,4]oxazino[2,3-f]quinolin-8-one]",> 10000,"na (not active (i.e. efficacy of <20 and potency of >10,000 nM for the cotransfection assay)",79%,,,,
"CCCC1COc2c(ccc3[nH]c(=O)cc(C(F)(F)F)c23)N1C (racemic) [Compound 117, (±)-2,3,4,7-Tetrahydro-4-methyl-3-propyl-10-(trifluoromethyl)-8H-[1,4]oxazino[2,3-f]quinolin-8-one]",> 10000,"na (not active (i.e. efficacy of <20 and potency of >10,000 nM for the cotransfection assay)",74%,,,,
"C[C@@H]1Oc2c(ccc3[nH]c(=O)cc(C(F)(F)F)c23)N(CC(F)(F)F)[C@@H]1C (racemic) [Compound 136, (±)-(2S,3R)-2,3,4,7-Tetrahydro-2,3-dimethyl-4-(2,2,2-trifluoroethyl)-10-(trifluoromethyl)-8H-[1,4]oxazino[2,3-f]quinolin-8-one]",34,61%,24%,,,,
"C[C@@H]1COc2c(ccc3[nH]c(=O)cc(C(F)(F)F)c23)N1C [Compound 102, (3R)-2,3,4,7-Tetrahydro-3,4-dimethyl-10-(trifluoromethyl)-8H-[1,4]oxazino[2,3-f]quinolin-8-one]",> 10000,"na (not active (i.e. efficacy of <20 and potency of >10,000 nM for the cotransfection assay)",32%,,,,
"C[C@@H]1COc2c(ccc3[nH]c(=O)cc(C(F)(F)F)c23)N1CC(F)(F)F [Compound 104, (3R)-2,3,4,7-Tetrahydro-3-methyl-4-(2,2,2-trifluoroethyl)-10-(trifluoromethyl)-8H-[1,4]oxazino[2,3-f]quinolin-8-one]",7,73%,"na (not active (i.e. efficacy of <20 and potency of >10,000 nM for the cotransfection assay)",,,,
"CC[C@@H]1COc2c(ccc3[nH]c(=O)cc(C(F)(F)F)c23)N1 [Compound 107, (3R)-3-Ethyl-2,3,4,7-tetrahydro-10-(trifluoromethyl)-8H-[1,4]oxazino[2,3-f]quinolin-8-one]",301,17%,56%,,,,
"CC[C@@H]1COc2c(ccc3[nH]c(=O)cc(C(F)(F)F)c23)N1CC [Compound 109, (3R)-3,4-Diethyl-2,3,4,7-tetrahydro-10-(trifluoromethyl)-8H-[1,4]oxazino[2,3-f]quinolin-8-one]",411,29%,"na (not active (i.e. efficacy of <20 and potency of >10,000 nM for the cotransfection assay)",,,,
"CCN1c2ccc3[nH]c(=O)cc(C(F)(F)F)c3c2OC[C@H]1C(C)C [Compound 122, (3R)-4-Ethyl-2,3,4,7-tetrahydro-3-isopropyl-10-(trifluoromethyl)-8H-[1,4]oxazino[2,3-f]quinolin-8-one]",270,76%,"na (not active (i.e. efficacy of <20 and potency of >10,000 nM for the cotransfection assay)",,,,
"C=CCN1c2ccc3[nH]c(=O)cc(C(F)(F)F)c3c2OC[C@H]1C(C)C [Compound 126, (3R)-4-Allyl-2,3,4,7-tetrahydro-3-isopropyl-10-(trifluoromethyl)-8H-[1,4]oxazino[2,3-f]quinolin-8-one]",35,,,,,,
"CN1CC(C)(C)Oc2c1ccc1[nH]c(=O)cc(C(F)(F)F)c21 [Compound 138, 2,3,4,7-Tetrahydro-2,2,4-trimethyl-10-(trifluoromethyl)-8H-[1,4]oxazino[2,3-f]quinolin-8-one]",> 10000,"na (not active (i.e. efficacy of <20 and potency of >10,000 nM for the cotransfection assay)",90%,,,,
"CC(C)(O)C(=O)Nc1ccc([N+](=O)[O-])c(C(F)(F)F)c1 [Flut, 2-hydroxyflutamide, reference compound]",,,,> 10000,> 10000,,
"CC(=O)S[C@@H]1CC2=CC(=O)CC[C@]2(C)[C@H]2CC[C@@]3(C)[C@@H](CC[C@@]34CCC(=O)O4)[C@H]12 [Spir, spironolactone, reference compound]",,,,,,> 10000,> 10000

# Source: patent publication US7214690B2, “Tricyclic quinolinone and tricyclic quinoline androgen receptor modulator compounds and methods” (Ligand Pharmaceuticals Incorporated, priority 2001, dated 2007)
